Laboratory results as given in patent US20240299385A1 (ReWind Therapeutics NV, priority 2021, published 2024).

Target: T1, human GPR17 receptor (Homo sapiens, UniProt Q13304)
T1 construct: host or cells: HEK-293
Test: Calcium mobilization functional assay (Fluo-8, FLIPR TETRA) in HEK-293 hGPR17 (Gα-q assay)
Assay type: cell-based
Conditions: antagonism of MDL29,951 (~EC80) induced Ca2+ signal; cell line (HEK-293 hGPR17 or HEK-293 Suchi5 hGPR17) not given
Outline: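 Fluo-8-loaded HEK-293 hGPR17 cells (60 min dye loading, room temperature) were preincubated with compound for twenty minutes, then challenged with agonist MDL29,951 at ~EC80, 500 nM. Intracellular calcium release via Gα-q was recorded as FLIPR fluorescence for a further 2 minutes; compounds tested in duplicate.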

T1 sequence (Q13304 whole entry): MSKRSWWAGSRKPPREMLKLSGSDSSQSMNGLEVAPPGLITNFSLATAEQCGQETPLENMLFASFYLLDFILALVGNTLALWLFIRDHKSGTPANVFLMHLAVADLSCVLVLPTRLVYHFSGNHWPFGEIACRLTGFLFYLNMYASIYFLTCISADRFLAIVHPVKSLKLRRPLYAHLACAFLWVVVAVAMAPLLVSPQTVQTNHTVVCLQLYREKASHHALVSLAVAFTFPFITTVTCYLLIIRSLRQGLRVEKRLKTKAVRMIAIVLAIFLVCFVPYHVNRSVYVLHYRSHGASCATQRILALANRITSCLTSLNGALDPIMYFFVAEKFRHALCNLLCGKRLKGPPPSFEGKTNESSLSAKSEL

Compound | IC50
Cn1cccc(-c2cc(S(=O)(=O)Nc3ccc(C#N)cc3F)c[nH]2)c1=O [Cpd 600, N-(4-cyano-2-fluorophenyl)-5-(1-methyl-2-oxopyridin-3-yl)-1H-pyrrole-3-sulfonamide] | 5000 to 50000 nM
N#Cc1cc(F)c(NS(=O)(=O)c2c[nH]c(-c3ccccc3)c2)s1 [Cpd 601, N-(5-cyano-3-fluorothiophen-2-yl)-5-phenyl-1H-pyrrole-3-sulfonamide] | 500 to 5000 nM
N#Cc1ccc(NS(=O)(=O)c2c[nH]c(-c3sccc3F)c2)c(F)c1 [Cpd 602, N-(4-cyano-2-fluorophenyl)-5-(3-fluorothiophen-2-yl)-1H-pyrrole-3-sulfonamide] | < 500 nM
CC(C)n1cccc(-c2cc(S(=O)(=O)Nc3ccc(C#N)cc3F)c[nH]2)c1=O [Cpd 603, N-(4-cyano-2-fluorophenyl)-5-(2-oxo-1-propan-2-ylpyridin-3-yl)-1H-pyrrole-3-sulfonamide] | 5000 to 50000 nM
N#Cc1ccc(NS(=O)(=O)c2c[nH]c(-c3cccn(C(F)F)c3=O)c2)c(F)c1 [Cpd 604, N-(4-cyano-2-fluorophenyl)-5-[1-(difluoromethyl)-2-oxopyridin-3-yl]-1H-pyrrole-3-sulfonamide] | 500 to 5000 nM
N#Cc1cc(F)c(NS(=O)(=O)c2c[nH]cc2Cc2cc(F)cc(Cl)c2)cc1F [Cpd 605, 4-[(3-chloro-5-fluorophenyl)methyl]-N-(4-cyano-2,5-difluorophenyl)-1H-pyrrole-3-sulfonamide] | 500 to 5000 nM
Cc1cnc(-c2cc(S(=O)(=O)Nc3cc(F)c(C(F)(F)F)cc3F)c[nH]2)s1 [Cpd 606, N-[2,5-difluoro-4-(trifluoromethyl)phenyl]-5-(5-methyl-1,3-thiazol-2-yl)-1H-pyrrole-3-sulfonamide] | 500 to 5000 nM
N#Cc1cnc(-c2cc(S(=O)(=O)Nc3cc(F)c(C(F)(F)F)cc3F)c[nH]2)s1 [Cpd 607, 5-(5-cyano-1,3-thiazol-2-yl)-N-[2,5-difluoro-4-(trifluoromethyl)phenyl]-1H-pyrrole-3-sulfonamide] | 5000 to 50000 nM
N#Cc1ccc(NS(=O)(=O)c2c[nH]cc2Cc2ccc3c(c2)OCC3)c(F)c1 [Cpd 608, N-(4-cyano-2-fluorophenyl)-4-(2,3-dihydro-1-benzofuran-6-ylmethyl)-1H-pyrrole-3-sulfonamide] | 5000 to 50000 nM
N#Cc1ccc(NS(=O)(=O)c2c[nH]c(F)c2Cc2ccccc2)c(F)c1 [Cpd 609, 4-benzyl-N-(4-cyano-2-fluorophenyl)-5-fluoro-1H-pyrrole-3-sulfonamide] | 500 to 5000 nM
N#Cc1ccc(NS(=O)(=O)c2c[nH]c(-c3nccs3)c2)c(F)c1 [Cpd 610, N-(4-cyano-2-fluorophenyl)-5-(1,3-thiazol-2-yl)-1H-pyrrole-3-sulfonamide] | < 500 nM
O=S(=O)(Nc1cc(F)c(OC(F)F)cc1F)c1c[nH]c(-c2nnco2)c1 [Cpd 611, N-[4-(difluoromethoxy)-2,5-difluorophenyl]-5-(1,3,4-oxadiazol-2-yl)-1H-pyrrole-3-sulfonamide] | 500 to 5000 nM
[2H]c1ccc(-c2cc(S(=O)(=O)Nc3ccc(C#N)cc3F)c[nH]2)cc1 [Cpd 612, N-(4-cyano-2-fluorophenyl)-5-(4-deuteriophenyl)-1H-pyrrole-3-sulfonamide] | < 500 nM
O=S(=O)(Nc1cc(F)c(OC(F)F)cc1F)c1c[nH]c(-c2ncns2)c1 [Cpd 613, N-[4-(difluoromethoxy)-2,5-difluorophenyl]-5-(1,2,4-thiadiazol-5-yl)-1H-pyrrole-3-sulfonamide] | 500 to 5000 nM
N#Cc1ccc(NS(=O)(=O)c2c[nH]c(-c3cccn(CC(F)(F)F)c3=O)c2)c(F)c1 [Cpd 614, N-(4-cyano-2-fluorophenyl)-5-[2-oxo-1-(2,2,2-trifluoroethyl)pyridin-3-yl]-1H-pyrrole-3-sulfonamide] | 5000 to 50000 nM
N#Cc1cc(F)c(NS(=O)(=O)c2c[nH]c(-c3cccc4ccoc34)c2)cc1F [Cpd 615, 5-(1-benzofuran-7-yl)-N-(4-cyano-2,5-difluorophenyl)-1H-pyrrole-3-sulfonamide] | < 500 nM
N#Cc1ccc(NS(=O)(=O)c2c[nH]cc2CC2CCCCC2)c(F)c1 [Cpd 616, N-(4-cyano-2-fluorophenyl)-4-(cyclohexylmethyl)-1H-pyrrole-3-sulfonamide] | 500 to 5000 nM
N#Cc1cnc(-c2cc(S(=O)(=O)Nc3cc(F)c(OC(F)F)cc3F)c[nH]2)s1 [Cpd 617, 5-(5-cyano-1,3-thiazol-2-yl)-N-[4-(difluoromethoxy)-2,5-difluorophenyl]-1H-pyrrole-3-sulfonamide] | 5000 to 50000 nM
O=S(=O)(Nc1cc(F)c(C(F)(F)F)cc1F)c1c[nH]c(-c2cnccn2)c1 [Cpd 618, N-[2,5-difluoro-4-(trifluoromethyl)phenyl]-5-pyrazin-2-yl-1H-pyrrole-3-sulfonamide] | 500 to 5000 nM
O=S(=O)(Nc1cc(F)c(C(F)(F)F)cc1F)c1c[nH]c(-c2cccnn2)c1 [Cpd 619, N-[2,5-difluoro-4-(trifluoromethyl)phenyl]-5-pyridazin-3-yl-1H-pyrrole-3-sulfonamide] | < 500 nM

Compound | IC50
Cn1cnc2c(-c3cc(S(=O)(=O)Nc4ccc(C#N)cc4F)c[nH]3)cccc21 [Cpd 620, N-(4-cyano-2-fluorophenyl)-5-(1-methylbenzimidazol-4-yl)-1H-pyrrole-3-sulfonamide] | 500 to 5000 nM
O=S(=O)(Nc1cc(F)c(C(F)(F)F)cc1F)c1c[nH]c(C2CCC(F)(F)C2)c1 (stereo not shown) [Cpd 621, 5-(3,3-difluorocyclopentyl)-N-[2,5-difluoro-4-(trifluoromethyl)phenyl]-1H-pyrrole-3-sulfonamide] | 500 to 5000 nM
N#Cc1ccc(NS(=O)(=O)c2c[nH]c(CC3CC3)c2)c(F)c1 [Cpd 622, N-(4-cyano-2-fluorophenyl)-5-(cyclopropylmethyl)-1H-pyrrole-3-sulfonamide] | 500 to 5000 nM
N#Cc1ccc(NS(=O)(=O)c2c[nH]cc2Cc2ccncc2)c(F)c1 [Cpd 624, N-(4-cyano-2-fluorophenyl)-4-(pyridin-4-ylmethyl)-1H-pyrrole-3-sulfonamide] | 500 to 5000 nM
N#Cc1ccc(NS(=O)(=O)c2c[nH]cc2CCc2ccccc2)c(F)c1 [Cpd 625, N-(4-cyano-2-fluorophenyl)-4-(2-phenylethyl)-1H-pyrrole-3-sulfonamide] | 5000 to 50000 nM
O=S(=O)(Nc1cc(F)c(C(F)(F)F)cc1F)c1c[nH]c(-c2ccccc2)c1F [Cpd 626, N-[2,5-difluoro-4-(trifluoromethyl)phenyl]-4-fluoro-5-phenyl-1H-pyrrole-3-sulfonamide] | < 500 nM
O=S(=O)(Nc1cc(F)c(C(F)(F)F)cc1F)c1cc(-c2ccccc2)[nH]c1F [Cpd 627, N-[2,5-difluoro-4-(trifluoromethyl)phenyl]-2-fluoro-5-phenyl-1H-pyrrole-3-sulfonamide] | 500 to 5000 nM
O=S(=O)(Nc1cc(F)c(OC(F)F)cc1F)c1c[nH]c(-c2cncs2)c1 [Cpd 628, N-[4-(difluoromethoxy)-2,5-difluorophenyl]-5-(1,3-thiazol-5-yl)-1H-pyrrole-3-sulfonamide] | < 500 nM
O=S(=O)(Nc1cc(F)c(OC(F)F)cc1F)c1c[nH]c(-c2cscn2)c1 [Cpd 629, N-[4-(difluoromethoxy)-2,5-difluorophenyl]-5-(1,3-thiazol-4-yl)-1H-pyrrole-3-sulfonamide] | < 500 nM
O=S(=O)(Nc1ncc(C(F)(F)F)s1)c1c[nH]c(-c2ccccc2)c1 [Cpd 630, 5-phenyl-N-[5-(trifluoromethyl)-1,3-thiazol-2-yl]-1H-pyrrole-3-sulfonamide] | 500 to 5000 nM
N#Cc1cnc(NS(=O)(=O)c2c[nH]c(-c3ccccc3)c2)s1 [Cpd 631, N-(5-cyano-1,3-thiazol-2-yl)-5-phenyl-1H-pyrrole-3-sulfonamide] | 500 to 5000 nM
N#CCOc1cc(F)c(NS(=O)(=O)c2c[nH]c(-c3ccccc3)c2F)cc1F [Cpd 632, N-[4-(cyanomethoxy)-2,5-difluorophenyl]-4-fluoro-5-phenyl-1H-pyrrole-3-sulfonamide] | < 500 nM
COc1csc(-c2cc(S(=O)(=O)Nc3cc(F)c(OC(F)F)cc3F)c[nH]2)n1 [Cpd 633, N-[4-(difluoromethoxy)-2,5-difluorophenyl]-5-(4-methoxy-1,3-thiazol-2-yl)-1H-pyrrole-3-sulfonamide] | < 500 nM
Cc1csc(-c2cc(S(=O)(=O)Nc3cc(F)c(OC(F)F)cc3F)c[nH]2)n1 [Cpd 634, N-[4-(difluoromethoxy)-2,5-difluorophenyl]-5-(4-methyl-1,3-thiazol-2-yl)-1H-pyrrole-3-sulfonamide] | < 500 nM
O=S(=O)(Nc1cc(F)c(OC(F)F)cc1F)c1c[nH]c(-c2ccsn2)c1 [Cpd 635, N-[4-(difluoromethoxy)-2,5-difluorophenyl]-5-(1,2-thiazol-3-yl)-1H-pyrrole-3-sulfonamide] | < 500 nM
O=S(=O)(Nc1cc(F)c(OC(F)F)cc1F)c1c[nH]c(-c2ncco2)c1 [Cpd 636, N-[4-(difluoromethoxy)-2,5-difluorophenyl]-5-(1,3-oxazol-2-yl)-1H-pyrrole-3-sulfonamide] | < 500 nM
O=S(=O)(Nc1cc(F)c(OC(F)F)cc1F)c1c[nH]c(-c2ncc(C(F)(F)F)s2)c1 [Cpd 637, N-[4-(difluoromethoxy)-2,5-difluorophenyl]-5-[5-(trifluoromethyl)-1,3-thiazol-2-yl]-1H-pyrrole-3-sulfonamide] | 500 to 5000 nM
O=S(=O)(Nc1cc(F)c(OC(F)F)cc1F)c1c[nH]c(-c2ccns2)c1 [Cpd 638, N-[4-(difluoromethoxy)-2,5-difluorophenyl]-5-(1,2-thiazol-5-yl)-1H-pyrrole-3-sulfonamide] | < 500 nM
O=S(=O)(Nc1cc(F)c(OC(F)F)cc1F)c1c[nH]c(-c2cnsc2)c1 [Cpd 639, N-[4-(difluoromethoxy)-2,5-difluorophenyl]-5-(1,2-thiazol-4-yl)-1H-pyrrole-3-sulfonamide] | < 500 nM
N#Cc1cc(F)c(NS(=O)(=O)c2c[nH]c(-c3ccoc3)c2)cc1F [Cpd 640, N-(4-cyano-2,5-difluorophenyl)-5-(furan-3-yl)-1H-pyrrole-3-sulfonamide] | < 500 nM
